Reference: patent publication US20250244310A1, “METHODS OF IDENTIFICATION AND TARGETING OF MASTER KINASES IN CANCER” (The Trustees of Columbia University in the City of New York, priority 2022, published 2025)

What was measured:
[1] = tested on: phosphorylation of PKCδ on tyr-311; experiment: Western blot of GPM PDOs incubated with IGF-I, IGF-II or insulin; format: cell-based, human; settings: IGF-I 10 ng/ml, IGF-II 10 ng/ml, insulin 100 ng/ml, FIGS. 14b, c
Text: (§1) V9131), and j-actin 1:10,000 (Sigma, no. A5441).

BRCA cell lines = experiment: DepMap menadione survival ratio, BRCA cell lines; format: cell-based; settings: 26 BRCA cell lines from DepMap; p=0.008
Text: (§2) We used the BRCA and LUSC cell lines cohorts from DepMap for which both RNA-Seq expression and menadione survival ratio from PRISM Repurposing Primary Screen were available (n=26 for BRCA and n=71 for LUSC)^94. For each cell line, we used the transcriptomic profile to calculated the NES of the four functional GBM subtypes by MWW-GST using gene signatures obtained from the analysis of TCGA samples. Each cell line was classified according the highest subtype activity (NES). We assessed the difference in survival ratio between the mitochondrial cell lines and the others using two-sided Student t-test, unequal variance.

LUSC cell lines = experiment: DepMap menadione survival ratio, LUSC cell lines; format: cell-based; settings: 71 LUSC cell lines from DepMap; p=0.076
Text: as §2

[2] = tested on: AKT-ser-473 and STAT3-tyr-705 phosphorylation; experiment: Western blot of GPM PDO cells treated with BJE6-106; format: cell-based, human; settings: BJE6-106 at 50 µM, time course, FIG. 5d
Text: as §1

GPM PDO cells = experiment: Colony-forming (clonogenic) assay of GPM PDO cells treated with BJE6-106; format: cell-based, human; settings: FIG. 5c
Experimental: Cell growth and clonogenic assay. Time course analysis of the cellular growth of shPRKCD infected PDOs or the empty vector was performed by plating 4,500 cells per well in 96-well plates. Viability was determined using CellTiterGlo assay reagent (Promega, G7570) and the GloMax-Multi+ Microplate Multimode Reader (Promega). Data are mean±s.d. of five replicates, and experiments were repeated twice. For clonogenic assay of PDO cells treated with increasing concentration of BJE6-106, 1,500 cells were plated in 6-well plates in triplicate. Cells were fixed in methanol and stained with crystal violet 2 weeks later. Colonies with more than 50 cells were scored. Data are mean±s.d. of triplicate observations from one representative experiment. Experiments were repeated twice.

PPR GBM PDOs = experiment: Irradiation-drug combination viability, PPR PDOs; format: cell-based, human
Experimental: (§3) Cells were cultured in DMEM/F12 medium supplemented with N-2, B-27, EGF and FGF. Cells were plated in 130 μl in opaque white 96-well plates. Twenty-four hrs later cells were treated with 3-fold serial dilutions of compounds as indicated in six replicates for 72 hrs. Viability was determined using CellTiterGlo assay reagent (Promega, G7570) and GloMax-Multi+ Microplate Multimode Reader (Promega). For the irradiation-drug combination treatment, PDOs cells were plated in 96 well plates 24 hrs before treatment. Cells were treated with 3-fold serial dilutions of M3814 two hrs before exposure to various irradiation doses (2, 4, 8 Gy at 0.7 Gy/min) from a ^137Cs source (GammaCell 40 irradiator, Teratronics). Mock irradiated cells were cultured in parallel. Viability was determined 96 hrs later using CellTiterGlo assay reagent (Promega, G7570) and GloMax-Multi+ Microplate Multimode Reader (Promega). Data are mean±s.d. of the viability ratio from 6 observations in 8 PPR and 8 GPM PDOs. Experiments were performed at least twice with similar results. Clonogenic assays for the evaluation of irradiation-drug combination were performed in 96 well plates. Each experimental point was plated in 3 independent 96 well plates. The number of wells containing PDO spheres were scored and the value of control untreated cell was considered 100% clonogenicity for the specific PDO. […]

PPR and GPM PDOs = experiment: Clonogenic assay for irradiation-drug combination; format: cell-based, human; settings: two PPR and GPM PDOs, irradiation plus nedisertib; FIG. 15b
Experimental: as §3

[3] = tested on: serine-2056 phosphorylation of DNA-PKcs; settings: irradiated PPR PDO cells; FIG. 5l
Experimental: Cells were lysed in RIPA buffer (50 mM Tris-HCl pH 7.5, 150 mM NaCl, 1 mM EDTA, 1% NP40, 0.5% sodium dexoycholate, 0.1% sodium dodecyl sulfate, 1.5 mM Na3VO4, 50 mM sodiumfluoride, 10 mM sodium pyrophosphate, 10 mM β-glycerolphosphate and EDTA-free protease inhibitor cocktail; Roche). Lysates briefly sonicated, cleared by centrifugation at 15,000 r.p.m. for 15 min at 4° C., separated by SDS-polyacrylamide gel electrophoresis and transferred to polyvinylidene difluoride membrane. Membranes were blocked in Tris-buffered saline with 5% nonfat milk and 0.1% Tween 20 and probed with primary antibodies overnight at 4° C. Antibodies0 and concentrations were as follows: p-DNA-PK 1:1,000 (Ser2056, CST, #68716), DNA-PK 1:1,000 (CST, #38168), p-NBS1 1:1,000 (Ser343, CST, #3001), NBS1 1:1,000 (CST, #81234), p-KAP1 1:1,000 (Ser824, Abcam, ab133440), KAP1 1:1,000 (Abcam, ab109287), p-CHK1 (Ser317, CST, #12302), CHK1 (CST, #2360), p-PKCδ 1:1,000 (Tyr311, CST, #20555), PKCδ 1:1,000 (CST, #96165), p-STAT3 1:1,000 (Tyr705, CST, #91455), STAT3 1:1,000 (CST, #49045) p-AKT 1:1,000 (Ser473, CST, #40605), p-AKT 1:1,000 (Thr308, CST, #13038S), AKT 1:1,000 (CST, #49615), p-ERK1/2 1:1,000 (Thr202/Tyr204, CST, #4370), ERK1/2 1:1,000 (CST, #9102), GAPDH 1:10,000 (Abcam, ab9484), Vinculin 1:10,000 (Sigma, no. V9131), and j-actin 1:10,000 (Sigma, no. A5441). […]

[4] = tested on: phosphorylation of serine-343 of NBS1 and serine-824 of KAP1; experiment: Western blot of PPR PDO cells, irradiation plus nedisertib: double-strand break markers; format: cell-based, human; settings: PPR PDOs, until 24 hours after irradiation, FIG. 5l
Text: as §1

GPM PDOs = experiment: Irradiation-drug combination viability, GPM PDOs; format: cell-based, human; settings: eight GPM PDOs; FIG. 5k
Experimental: as §3

γH2AX foci = experiment: Immunofluorescence analysis of γH2AX foci in PPR PDO cells; format: cell-based, human; settings: IR 4 Gy plus nedisertib 556 nM, 0-24 hr, FIG. 5m
Experimental: Cells were fixed with 4% paraformaldehyde, permeabilized with cold methanol for 90 seconds at 4° C., and blocked with 5% BSA, 0.05% Triton X-100 in PBS for 30 minutes. Cells were exposed to primary antibody phospho-H2AX 1:500 (S139, CST, #2577) for one hour at room temperature followed by Cy3-conjugated anti rabbit (Invitrogen, A10520) for one hour at room temperature. Nuclei were stained with DAPI (Sigma). Images were acquired using a Nikon Ti Eclipse inverted microscope for spinning-disk confocal microscopy equipped with a Plan Apochromat 60× oil/1.4 NA DIC objective. Counting of TH2AX foci in individual nuclei were analyzed by ImageJ (NIH, Bethesda, USA) by specific in-built find Maxima>Prominence>Point Selection plug-in. Minimum 50 nuclei in at least ten representative images were included for analysis in each treatment group.

IGF1: growth factor used to stimulate GPM PDOs (10 ng/ml)
phosphorylation of PKCδ on tyr-311 [1]: induced phosphorylation of PKCδ on tyr-311

insulin: hormone used to stimulate GPM PDOs (100 ng/ml)
phosphorylation of PKCδ on tyr-311 [1]: induced phosphorylation of PKCδ on tyr-311

CC1=CC(=O)c2ccccc2C1=O [menadione]
menadione survival ratio, difference between mitochondrial cell lines versus the others, log2(FC) (BRCA cell lines): −1.31 | menadione survival ratio, difference between mitochondrial cell lines versus the others, log2(FC) (LUSC cell lines): −0.63

CC1(C)C=Cc2cc(CCn3c4ccccc4c4ccccc43)cc(C=O)c2O1 [BJE-10676]
AKT-ser-473 and STAT3-tyr-705 phosphorylation [2]: time-dependent decrease of AKT-ser-473 and STAT3-tyr-705 phosphorylation | colony formation (GPM PDO cells): dose-dependent inhibition of colony formation

IGF2: growth factor used to stimulate GPM PDOs (10 ng/ml)
phosphorylation of PKCδ on tyr-311 [1]: induced phosphorylation of PKCδ on tyr-311

COc1ccc([C@@H](O)c2cc(-c3ncnc4cc(N5CCOCC5)ccc34)c(F)cc2Cl)nn1 [nedisertib]
tumor cell viability, nedisertib-IR combination compared to each individual treatment (PPR GBM PDOs; eight PPR GBM PDOs, FIG. 5k): marked reduction of tumor cell viability | radiation dose enhancement factor (DEF) (PPR GBM PDOs; six of the eight PPR PDOs, even at the lowest concentrations of nedisertib): > 2 | radiosensitivity by clonogenic assay (PPR and GPM PDOs): confirmed these results | serine-2056 phosphorylation of DNA-PKcs [3]: inhibited serine-2056 phosphorylation of DNA-PKcs | phosphorylation of serine-343 of NBS1 and serine-824 of KAP1 (unrepaired DNA damage) [4]: sustained phosphorylation of serine-343 of NBS1 and serine-824 of KAP1 | effect of nedisertib-IR combination on viability (GPM PDOs): virtually ineffective | number of γH2AX foci (γH2AX foci): remained elevated throughout the course of the experiment
